According to ChEMBL document CHEMBL4342407, “Thieno[2,3-d]pyrimidine as a promising scaffold in medicinal chemistry: Recent advances” (Bioorg Med Chem, 2019):

Legend:
Klebsiella pneumoniae = experiment: Antibacterial activity against Klebsiella pneumoniae assessed as zone inhibition at 100 ug/ml; assay type: functional; settings: read-out: IZ
Escherichia coli = experiment: Antibacterial activity against Escherichia coli assessed as zone inhibition at 100 ug/ml; assay type: functional; settings: read-out: IZ
Bacillus subtilis = experiment: Antibacterial activity against Bacillus subtilis assessed as zone inhibition at 100 ug/ml; assay type: functional; settings: read-out: IZ
Staphylococcus aureus = experiment: Antibacterial activity against Staphylococcus aureus assessed as zone inhibition at 100 ug/ml; assay type: functional; settings: read-out: IZ
Rattus norvegicus [1] = experiment: Antiinflammatory activity in gamma irradiated rat assessed as reduction in NFkappaB level in liver tissue homogenates at 150 mg/kg, ip administered once daily for 7 consecutive days by ELISA (reference value: 258.33 +/- 4.216 pg/ml); assay type: functional
Rattus norvegicus [2] = experiment: Antiinflammatory activity in gamma irradiated rat assessed as reduction in COX-2 level in liver tissue homogenates at 150 mg/kg, ip administered once daily for 7 consecutive days by ELISA (reference value: 89.50 +/- 2.617 ng/ml); assay type: functional
Rattus norvegicus [3] = experiment: Antiinflammatory activity in gamma irradiated rat assessed as reduction in serum IL-6 level at 150 mg/kg, ip administered once daily for 7 consecutive days by ELISA (reference value: 103.87 +/- 3.273 pg/ml); assay type: functional
Rattus norvegicus [4] = experiment: Antiinflammatory activity in gamma irradiated rat assessed as reduction in serum TNFalpha level at 150 mg/kg, ip administered once daily for 7 consecutive days by ELISA (reference value: 105.07 +/- 3.925 pg/ml); assay type: functional
[5] = Ulcerogenic activity in Sprague-Dawley rat assessed as ulcer index at 20 mg/kg, ip pretreated followed by pylorus ligation and measured at 4 hrs post ligation; assay type: toxicity, organism-based; settings: in vivo
Mus musculus = experiment: Analgesic activity in Swiss albino mouse assessed as protection against acetic acid-induced writhing at 15 mg/kg, po pretreated for 30 mins followed by acetic acid challenge and measured after 20 mins relative to control; assay type: functional
Rattus norvegicus [6] = experiment: Antiinflammatory activity in Sprague-Dawley rat assessed as inhibition of carrageenan-induced edema at 15 mg/kg, po pretreated for 1 hr followed by carrageenan challenge and measured after 4 hrs by mercury plethysmometer relative to control; assay type: functional
Hepatovirus A = experiment: Antiviral activity against Hepatitis A virus infected in HepG2 cells assessed as virus inhibition at 40 ug/L incubated overnight with virus followed by inoculation and measured after 1 hr by crystal violet staining based plaque reduction assay; assay type: functional
HCT-116 = experiment: Antiproliferative activity against human HCT116 after 18 hrs by MTT assay; assay type: functional, cell-based; settings: HCT-116, 18 h
Human alphaherpesvirus 1 [7] = experiment: Antiviral activity against Herpes simplex virus 1 at 50 ug/10^5; assay type: functional
Human alphaherpesvirus 1 [8] = experiment: Antiviral activity against Herpes simplex virus 1 at 20 ug/10^5; assay type: functional
Adenosine receptor A1 = molecular target: T1, Adenosine receptor A1 (Homo sapiens, UniProt P30542); experiment: Displacement of [3H]-CCPA binding from human A1 receptor expressed in CHO cells by radioligand competitive binding assay; assay type: cell-based
T1 sequence (P30542 whole entry): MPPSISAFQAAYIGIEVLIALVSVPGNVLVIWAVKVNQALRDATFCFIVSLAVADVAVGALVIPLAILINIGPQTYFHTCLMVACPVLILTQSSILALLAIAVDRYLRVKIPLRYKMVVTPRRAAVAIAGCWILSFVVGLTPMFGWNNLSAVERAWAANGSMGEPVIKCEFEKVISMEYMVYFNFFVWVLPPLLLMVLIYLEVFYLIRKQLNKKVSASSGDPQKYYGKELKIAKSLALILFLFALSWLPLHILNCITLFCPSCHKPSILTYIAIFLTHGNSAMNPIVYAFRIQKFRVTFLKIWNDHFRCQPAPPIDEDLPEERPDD

Homo sapiens [9] = organism: Homo sapiens; experiment: Selectivity ratio of Ki for human A1 receptor expressed in CHO cells to Ki for human A3 receptor expressed in CHO cells; assay type: cell-based
Adenosine receptor A2a = Adenosine receptor A2a (Homo sapiens, UniProt P29274); experiment: Displacement of [3H]-NECA from human A2A receptor expressed in CHO cells by radioligand competitive binding assay; assay type: cell-based
Homo sapiens [10] = organism: Homo sapiens; experiment: Selectivity ratio of Ki for human A2A receptor expressed in CHO cells to Ki for human A3 receptor expressed in CHO cells; assay type: cell-based
Adenosine receptor A3 = molecular target: T2, Adenosine receptor A3 (Homo sapiens, UniProt P0DMS8); experiment: Displacement of [3H]-HEMADO from human A3 receptor expressed in CHO cells by radioligand competitive binding assay; assay type: cell-based
T2 sequence (P0DMS8 whole entry): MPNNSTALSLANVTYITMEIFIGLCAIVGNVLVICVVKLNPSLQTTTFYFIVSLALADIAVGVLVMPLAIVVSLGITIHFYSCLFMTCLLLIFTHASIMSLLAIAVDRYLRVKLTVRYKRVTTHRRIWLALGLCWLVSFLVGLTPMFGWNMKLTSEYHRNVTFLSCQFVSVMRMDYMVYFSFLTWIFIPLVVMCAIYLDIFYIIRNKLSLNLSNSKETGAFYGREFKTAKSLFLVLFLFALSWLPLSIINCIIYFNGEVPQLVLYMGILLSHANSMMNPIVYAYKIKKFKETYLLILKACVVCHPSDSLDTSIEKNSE

Homo sapiens [11] = organism: Homo sapiens; experiment: Selectivity ratio of Ki for human A1 receptor expressed in CHO cells to Ki for human A2A receptor expressed in CHO cells; assay type: cell-based
[12] = Inhibition of Influenza A virus H3N2 Neuraminidase
Homo sapiens [13] = organism: Homo sapiens; experiment: Selectivity ratio of IC50 for CDK2/cyclin E (unknown origin) expressed in baculovirus infected Sf9 insect cells to IC50 for CDK4/cyclin D1 (unknown origin) expressed in baculovirus infected Sf9 insect cells
[14] = molecular target: Cyclin-dependent kinase 4/cyclin D1 (Homo sapiens, UniProt P11802); experiment: Inhibition of CDK4/cyclin D1 (unknown origin) expressed in baculovirus infected Sf9 insect cells using GST-Rb as substrate in presence of [33P] ATP incubated for 30 mins
[15] = molecular target: Cyclin-dependent kinase 2/cyclin E1 (Homo sapiens, UniProt P24941); experiment: Inhibition of CDK2/cyclin E (unknown origin) expressed in baculovirus infected Sf9 insect cells using GST-Rb as substrate in presence of [33P] ATP incubated for 30 mins

Chain of Adenosine receptor A2a (P29274 whole entry): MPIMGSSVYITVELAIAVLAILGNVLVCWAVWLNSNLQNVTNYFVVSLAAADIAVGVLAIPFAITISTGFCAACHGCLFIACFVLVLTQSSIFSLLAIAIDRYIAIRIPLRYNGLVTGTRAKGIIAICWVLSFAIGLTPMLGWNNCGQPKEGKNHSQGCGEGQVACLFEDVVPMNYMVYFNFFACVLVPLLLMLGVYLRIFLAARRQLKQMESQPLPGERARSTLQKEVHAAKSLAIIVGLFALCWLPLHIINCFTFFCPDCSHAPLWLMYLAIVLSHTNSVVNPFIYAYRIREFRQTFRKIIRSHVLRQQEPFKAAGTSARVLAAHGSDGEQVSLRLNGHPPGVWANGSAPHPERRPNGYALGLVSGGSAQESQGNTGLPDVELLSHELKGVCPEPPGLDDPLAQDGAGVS
Chain of Cyclin-dependent kinase 4/cyclin D1 (P11802 whole entry): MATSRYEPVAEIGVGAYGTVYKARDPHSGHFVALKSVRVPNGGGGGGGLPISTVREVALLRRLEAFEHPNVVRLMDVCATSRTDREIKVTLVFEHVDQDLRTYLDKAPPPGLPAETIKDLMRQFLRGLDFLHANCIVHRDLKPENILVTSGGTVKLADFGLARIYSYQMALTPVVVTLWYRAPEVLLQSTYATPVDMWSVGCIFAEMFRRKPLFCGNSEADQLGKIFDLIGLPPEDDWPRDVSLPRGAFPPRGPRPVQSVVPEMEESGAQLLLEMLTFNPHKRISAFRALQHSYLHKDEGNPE
Chain of Cyclin-dependent kinase 4/cyclin D1 (P24385 whole entry, further chain): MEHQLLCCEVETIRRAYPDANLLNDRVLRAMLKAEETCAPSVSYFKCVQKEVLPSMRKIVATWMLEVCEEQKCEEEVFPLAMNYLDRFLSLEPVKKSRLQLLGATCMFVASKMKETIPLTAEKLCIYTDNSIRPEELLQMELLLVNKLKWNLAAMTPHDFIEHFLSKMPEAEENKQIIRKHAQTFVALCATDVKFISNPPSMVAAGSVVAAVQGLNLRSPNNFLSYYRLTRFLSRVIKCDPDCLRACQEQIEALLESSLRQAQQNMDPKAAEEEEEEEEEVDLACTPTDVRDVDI

CC1(C)S[C@@H]2[C@H](NC(=O)[C@H](N)c3ccc(O)cc3)C(=O)N2[C@H]1C(=O)O [AMOXICILLIN]
zone of inhibition at 100 µg/mL (Klebsiella pneumoniae): 18 mm | zone of inhibition at 100 µg/mL (Escherichia coli): 19.5 mm | zone of inhibition at 100 µg/mL (Bacillus subtilis): 15.5 mm | zone of inhibition at 100 µg/mL (Staphylococcus aureus): 17.6 mm

CCOC(=O)c1sc2ncnc(Cl)c2c1C
NFkappaB level in liver tissue (Rattus norvegicus [1]): 138.17 pg/mL | COX-2 level in liver homogenate (Rattus norvegicus [2]): 36.33 ng/mL | Serum IL-6 level (Rattus norvegicus [3]): 50.1 pg/mL | Serum TNFalpha level (Rattus norvegicus [4]): 41.53 pg/mL

CC(=O)c1nn(-c2ccc(Cl)cc2)c2nc3sc(-c4ccccc4)c(C)c3c(=O)n12
UI [5]: 0.9 | Activity (Mus musculus): 35% | inhibition in vivo at 15 mg/kg (Rattus norvegicus [6]): 74.5%

CC(=O)OC[C@H]1O[C@@H](Sc2nc3sc4c(c3c(=O)n2CCO)CCCCC4)[C@H](OC(C)=O)[C@@H](OC(C)=O)[C@@H]1OC(C)=O
inhibition (INH) (Hepatovirus A): 65%

CCc1cc2c(OCc3cc(-c4ccc(OC)cc4)no3)ncnc2s1
IC50 (HCT-116): 112 µM

FC(F)(F)c1ccc(C2=NOC(c3cc4cncnc4s3)C2)cc1 (stereo not drawn)
zone of inhibition at 100 µg/mL (Klebsiella pneumoniae): 16.5 mm | zone of inhibition at 100 µg/mL (Escherichia coli): 17 mm | zone of inhibition at 100 µg/mL (Bacillus subtilis): 13 mm | zone of inhibition at 100 µg/mL (Staphylococcus aureus): 15 mm

CC(=O)OC[C@H]1O[C@@H](Sc2nc3sc4c(c3c(=O)n2C)CCCCC4)[C@H](OC(C)=O)[C@@H](OC(C)=O)[C@@H]1OC(C)=O
inhibition (INH) (Hepatovirus A): 50%

CCOC(=O)c1sc2ncnc(NCC(=O)O)c2c1C
NFkappaB level in liver tissue (Rattus norvegicus [1]): 89.83 pg/mL | COX-2 level in liver homogenate (Rattus norvegicus [2]): 31.17 ng/mL | Serum IL-6 level (Rattus norvegicus [3]): 46.53 pg/mL | Serum TNFalpha level (Rattus norvegicus [4]): 48.32 pg/mL

c1csc(C2=NOC(c3cc4cncnc4s3)C2)c1 (stereo not drawn)
zone of inhibition at 100 µg/mL (Klebsiella pneumoniae): 14.5 mm | zone of inhibition at 100 µg/mL (Escherichia coli): 15.5 mm | zone of inhibition at 100 µg/mL (Bacillus subtilis): 11.5 mm | zone of inhibition at 100 µg/mL (Staphylococcus aureus): 12.5 mm

COCCSc1ncnc2sc3c(c12)-c1ccccc1CC3
Activity (Human alphaherpesvirus 1 [7]): 30% | Activity (Human alphaherpesvirus 1 [8]): 15%

Cc1c(-c2ccccc2)sc2nc3n(-c4ccccc4)nc(-c4ccccc4)n3c(=O)c12
UI [5]: 1.1 | Activity (Mus musculus): 52% | inhibition in vivo at 15 mg/kg (Rattus norvegicus [6]): 74.6%

Cc1sc2nc(NC(=O)c3ccccc3)[nH]c(=O)c2c1C
Ki (Adenosine receptor A1): > 30 µM | Ratio Ki (Homo sapiens [9]): > 240 | Ki (Adenosine receptor A2a): 0.65 µM | Ratio Ki (Homo sapiens [10]): 5.24 | Ki (Adenosine receptor A3): 0.124 µM | Ratio Ki (Homo sapiens [11]): > 46

CC(=O)OC[C@H]1O[C@@H](Sc2nc3sc4c(c3c(=O)n2-c2ccccc2)CCCCC4)[C@H](OC(C)=O)[C@@H](OC(C)=O)[C@@H]1OC(C)=O
inhibition (INH) (Hepatovirus A): 50%

Cc1sc2nc(N)nc(-n3cncn3)c2c1C
Ki (Adenosine receptor A1): 40.8 µM | Ratio Ki (Homo sapiens [9]): > 1.4 | Ki (Adenosine receptor A2a): 5.69 µM | Ratio Ki (Homo sapiens [10]): > 0.19 | Ki (Adenosine receptor A3): > 30 µM | Ratio Ki (Homo sapiens [11]): 7.2

C/C(=N\Nc1nc(-c2c[nH]c3ccccc23)nc2sc3c(c12)CCCC3)c1ccccc1
IC50 [12]: 0.237 µM

CNCc1csc(/C=N/Nc2ncnc3sc(C(C)C(C)C)cc23)n1 (stereo not drawn)
Ratio IC50 (Homo sapiens [13]): 40 | IC50 [14]: 0.022 µM | IC50 [15]: 0.88 µM

O=C1CCC(=O)N1Nc1nc(-c2c[nH]c3ccccc23)nc2sc3c(c12)CCCC3
IC50 [12]: 0.021 µM

CC(=O)Nc1nc2sc3c(c2c(=O)[nH]1)CCC3
Ki (Adenosine receptor A1): > 100 µM | Ratio Ki (Homo sapiens [9]): > 74 | Ki (Adenosine receptor A2a): > 30 µM | Ratio Ki (Homo sapiens [10]): > 22 | Ki (Adenosine receptor A3): 1.35 µM | Ratio Ki (Homo sapiens [11]): > 3.3

CCC(C)c1cc2c(N/N=C/c3nc(CNC)cs3)ncnc2s1 (stereo not drawn)
Ratio IC50 (Homo sapiens [13]): 15.2 | IC50 [14]: 0.029 µM | IC50 [15]: 0.44 µM
